Assay [1] has as its target T1, fMet-Leu-Phe receptor 1/2 (Homo sapiens) (UniProt P21462+P25090). Put plainly: Agonist activity at FPR1/FPR2 receptor in human neutrophils assessed as induction of chemotaxis after 60 mins relative to fMLP-OMe.
The target in assay [2] is T1, fMet-Leu-Phe receptor 1/2 (Homo sapiens). Briefly: Agonist activity at FPR1/FPR2 receptor in human neutrophils assessed as induction of superoxide radical generation at 1 uM by spectrophotometric analysis.
The target is the same in assay [3]. Briefly: Agonist activity at FPR1/FPR2 receptor in human neutrophils assessed as stimulation of fMLP-OMe-induced superoxide radical generation at 0.1 uM incubated for 5 mins followed by fMLP-OMe induction by spectrophotometric analysis relative to control.
Assay [4] concerns the target T2, N-formyl peptide receptor 2 (Homo sapiens) (UniProt P25090).
T2 sequence (whole entry): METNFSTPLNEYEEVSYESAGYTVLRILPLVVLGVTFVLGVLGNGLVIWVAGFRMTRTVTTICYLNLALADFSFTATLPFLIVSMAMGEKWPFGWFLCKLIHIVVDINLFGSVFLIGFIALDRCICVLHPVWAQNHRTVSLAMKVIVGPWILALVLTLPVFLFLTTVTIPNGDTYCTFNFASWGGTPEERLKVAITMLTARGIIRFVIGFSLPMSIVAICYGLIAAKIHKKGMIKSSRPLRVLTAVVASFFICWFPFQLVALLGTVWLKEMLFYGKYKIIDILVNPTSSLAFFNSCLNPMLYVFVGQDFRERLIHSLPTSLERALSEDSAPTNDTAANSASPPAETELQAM
Briefly: Binding affinity to FPR2 receptor in human neutrophils assessed as induction of intracellular calcium mobilization at 1 uM in presence of MMK-1. It is filed as functional, cell-based. Background: Calcium flux is commonly read through the fluorescence of an indicator in the cells.

Assay [5] deals with T1, fMet-Leu-Phe receptor 1/2 (Homo sapiens). Put plainly: Agonist activity at FPR1/FPR2 receptor in human neutrophils assessed as increase in intracellular calcium concentration at 0.1 uM by Fura-2-based spectrofluorophotometric analysis. It is filed as functional, cell-based.
Assay [6] has as its target T3, fMet-Leu-Phe receptor 1/2 (Homo sapiens, UniProt P21462+P25090).
T3 sequence (P21462 whole entry): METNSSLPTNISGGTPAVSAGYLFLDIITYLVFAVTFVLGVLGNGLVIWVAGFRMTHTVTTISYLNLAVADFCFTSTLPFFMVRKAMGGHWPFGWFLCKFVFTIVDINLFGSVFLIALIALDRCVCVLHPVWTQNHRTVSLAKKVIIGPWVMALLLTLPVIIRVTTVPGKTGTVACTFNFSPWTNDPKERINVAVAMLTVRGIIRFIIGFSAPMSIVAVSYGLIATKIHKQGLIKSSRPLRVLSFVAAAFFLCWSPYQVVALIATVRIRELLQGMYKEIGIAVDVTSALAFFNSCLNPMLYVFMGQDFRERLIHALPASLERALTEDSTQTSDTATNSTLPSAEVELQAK
T3 sequence (P25090 whole entry): T2 sequence (whole entry)
Briefly: Agonist activity at FPR1/FPR2 receptor in human neutrophils assessed as induction of chemotaxis after 60 mins.

For assay [7], the target named is T1, fMet-Leu-Phe receptor 1/2 (Homo sapiens). Briefly: Agonist activity at FPR1/FPR2 receptor in human neutrophils assessed as induction of superoxide radical generation at 1 uM by […] spectrophotometric analysis relative to fMLP-OMe.
Assay [8] addresses T3, fMet-Leu-Phe receptor 1/2. Briefly: Agonist activity at FPR1/FPR2 receptor in human neutrophils assessed as induction of superoxide radical generation by spectrophotometric analysis.
Assay [9] has as its target T1, fMet-Leu-Phe receptor 1/2 (Homo sapiens). Briefly: Agonist activity at FPR1/FPR2 receptor in human neutrophils assessed as increase in intracellular calcium concentration by spectrofluorophotometric analysis. It is filed as functional, cell-based.

Activity calls are given as the source filed them. The rule behind the calls is not given here.

What is called EC50 is the concentration that produces a half-maximal response. In the case of `COC(=O)[C@@]1(NC(=O)[C@H](CC(C)C)NC(=O)[C@H](CCSC)NC=O)C[C@H]1c1ccccc1`, the figures for the Activity in assay [1], in assay [2] and in assay [3] were 53%, 10% and 114%, respectively. In addition, the result in assay [4] was inactive. The result in [5] was Active. In addition, the EC50 in [6] was determined as 4.7 nM.
In the case of `COC(=O)[C@]1(NC(=O)[C@H](CC(C)C)NC(=O)[C@H](CCSC)NC=O)C[C@H]1c1ccccc1`, the Activity was determined as 45% in [7], 12% in assay [1], 10% in [2] and 175% in assay [3]. The outcome in [4] and in assay [5] was Active. Besides, the EC50 in assay [6] is 21 nM.
Turning to `COC(=O)[C@H](Cc1ccccc1)NC(=O)[C@H](CC(C)C)NC(=O)[C@H](CCSC)NC=O`, the EC50 in assay [8] came to 16 nM; in [6] it was 2.5 nM. The outcome in assay [5] was Active.
As for `CSCC[C@H](NC(=O)[C@H](Cc1ccc(O)cc1)NC(=O)[C@H](CCCCN)NC(=O)[C@@H](N)Cc1c[nH]c2ccccc12)C(=O)N[C@H](C(=O)N[C@H](CCSC)C(=O)O)C(C)C`, the result in assay [9] was Active.
`COC(=O)[C@]1(NC(=O)[C@H](CC(C)C)NC(=O)[C@H](CCSC)NC=O)C[C@@H]1c1ccccc1`: the Activity was 18% in [1], 10% in assay [2] and 114% in assay [3]. The outcome in assay [4] was inactive. Moreover, the outcome in [5] was Active. In addition, the EC50 in assay [6] was determined as 14 nM.
Turning to `CSCC[C@H](NC=O)C(=O)N[C@@H](CC(C)C)C(=O)N[C@]1(C(=O)O)C[C@@H]1c1ccccc1`, the Activity in [7] was 6.4%; in [1] it was 26%; in assay [3], 200%. Moreover, the EC50 in [8] stood at 250 nM; in [6], 9.1 nM. Moreover, the result in [4] and in assay [5] was Active.

The values are drawn from ChEMBL document CHEMBL2331426, “A formyl peptide substituted with a conformationally constrained phenylalanine residue evokes a selective immune response in human neutrophils” (Bioorg Med Chem, 2013).
